{
  "source": "patent US20110059869A1",
  "about": "“Method for Increasing Enzymatic Reactivity” (RIKEN, priority 2008, published 2011)",
  "key": {"[1]": {"system": "HindIII", "assay": "DNA fragment II HindIII cleavage reactions on bead and plate surfaces with added substances", "format": "biochemical", "settings": "0.6 M sorbitol; beads and plate; not of the same degree as trehalose", "procedure": "The effect of the presence of substances other than trehalose on enzymatic activity was examined for enzymatic reactions on the surface of a support. Sorbitol was employed as the added reagent. Trehalose was also added and a sorbitol+trehalose reaction system was examined (Scheme 7).\nHindIII cleavage reactions were conducted on biotin-labeled DNA fragment II (Seq. ID No. 5, Scheme 4) on the surface of beads by adding trehalose, glucose, sorbitol, and betaine, and the 104 by DNA fragment released was detected. Paramagnetic streptavidin beads were washed with accessory 1× binding buffer, recovered with a magnetic stand to remove the supernatant, and suspended in the same buffer. […] The precipitate of DNA fragments thus obtained was dissolved in 1× TE (pH 7.5) and analyzed with Bioanalyzer DNA 1000 assay (Agilent Technologies).\nTrehalose and sorbitol were added and a HindIII cleavage reaction was conducted on a horizontal plate surface on biotin-labeled DNA fragment II (Seq. ID No. 5, Scheme 4) and the 104 by DNA fragments that were released were detected. […] The precipitate of DNA fragments obtained was dissolved in 1× TE (pH 7.5) and analyzed with Bioanalyzer DNA 1000 assay (Agilent Technologies)."}, "[2]": {"assay": "State of streptavidin bead reaction solution during enzymatic reaction", "format": "physicochemical", "settings": "0.6 M additive; extended / three hours restriction enzyme reaction", "source_text": "Thus, with no nonuniformity in enzymatic activity, the various enzymatic reactions were promoted and the quantity of target DNA recovered increased.\nThis was attributed to characteristics such as the viscosity and diffusing effect of trehalose or sorbitol."}},
  "data": [
    {"smiles": "OC[C@@H](O)[C@@H](O)[C@H](O)[C@@H](O)CO", "note": "[sorbitol, D(+) sorbitol]", "values": [
      {"measurement": "enzymatic activity (yield of DNA recovered)", "setting": "[1]", "value": "high enzymatic activity was exhibited on all reaction surfaces"},
      {"measurement": "uniformity of beads in the reaction solution", "setting": "[2]", "value": "uniformity in the solution of beads was maintained"}
    ]}
  ]
}
